target: T1, IDO1 (Homo sapiens, UniProt P14902); experiment: IDO1 cell-based assay (HeLa cells, IFNgamma-induced, N-formylkynurenine/L-tryptophan by RFMS); conditions: 10 ng/mL IFNgamma, 24 hours
T1 construct: endogenous in cells; host or cells: HeLa cells (ATCC), IFNgamma-induced
Protocol: HeLa cells were obtained from the American Type Culture Collection (ATCC) and maintained in DMEM media containing 10% FBS. Cells (7,000/well) were seeded onto a 384 well plate in 50 μL of media and incubated at 37° C., 5% CO2 overnight. Cell media was aspirated, fresh media containing 10 ng/mL IFNgamma was added, and cells were incubated in absence or presence of various concentrations of test compound (final 0.5% DMSO) for 24 hours. Aliquots of the cell conditioned media were removed from the cell plate, and mixed with an equal volume of 200 mM ZnSO4 to precipitate media containing proteins. Two volumes of acetonitrile were added, mixed, and samples were then centrifuged at 2250G for 20 minutes at 4° C. Aliquots of the supernatant were diluted 1:10 in 0.1% formic acid containing 3 μM of deuterated Tryptophan as an internal standard.
Samples were analyzed via RFMS to quantify N-Formyl Kynurenine (AUC) and L-tryptophan (AUC). A C18 cartridge was used with mobile phases of 0.1% Formic Acid and 80% ACN/0.1% Formic Acid under isocratic conditions. Dose-response curves were analyzed using IC50 regression curve fitting (GeneData Screener). […] Cell viability was also assessed using the Cell Titer Glo Kit (Promega) following manufacturer recommendation.

T1 sequence (P14902 whole entry): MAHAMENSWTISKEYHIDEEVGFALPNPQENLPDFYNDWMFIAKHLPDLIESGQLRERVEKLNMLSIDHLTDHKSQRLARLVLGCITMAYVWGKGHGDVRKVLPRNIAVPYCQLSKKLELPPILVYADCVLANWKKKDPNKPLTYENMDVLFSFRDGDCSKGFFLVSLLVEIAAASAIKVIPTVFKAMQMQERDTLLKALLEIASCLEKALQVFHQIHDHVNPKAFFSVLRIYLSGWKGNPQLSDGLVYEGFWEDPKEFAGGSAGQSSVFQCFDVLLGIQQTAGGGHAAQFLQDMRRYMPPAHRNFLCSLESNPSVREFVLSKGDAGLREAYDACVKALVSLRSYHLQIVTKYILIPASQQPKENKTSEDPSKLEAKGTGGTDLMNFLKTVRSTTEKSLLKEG

| Structure (SMILES) | IC50 |
| --- | --- |
| O=C(NC[C@@H]1[C@H]2C[C@H](n3cnc4ccc(F)cc4c3=O)C[C@@H]12)c1ccc(Cl)cc1 [Compound 65, 4-chloro-N-(((1R,3s,5S,6r)-3-(6-fluoro-4-oxoquinazolin-3(4H)-yl)bicyclo[3.1.0]hexan-6-yl)methyl)benzamide] | 0.2 to 2 µM |
| CCC(NC(=O)c1ccc(Cl)cc1)[C@H]1[C@@H]2C[C@@H](N3CCOCC3)C[C@@H]21 (stereo partly drawn) [Compound 73, 4-chloro-N-(1-((1R,3s,5S,6r)-3-morpholinobicyclo[3.1.0]hexan-6-yl)propyl)benzamide] | 2 to 5 µM |
| O=C(NCc1ccc(Cl)cc1)C1[C@H]2CC(Oc3ccnc4ccccc34)C[C@@H]12 (stereo partly drawn) [Compound 16, (1R,5S)-N-(4-chlorobenzyl)-3-(quinolin-4-yloxy)bicyclo[3.1.0]hexane-6-carboxamide] | > 5 µM |
| O=C(NC1C2CC(Oc3cc(C(F)(F)F)nc4ccc(F)cc34)CC21)c1ccc(Cl)cc1 (centres unmarked) [Compound 25, 4-chloro-N-(3-((6-fluoro-2-(trifluoromethyl)quinolin-4-yl)oxy)bicyclo[3.1.0]hexan-6-yl)benzamide] | > 5 µM |
| COC(=O)C(NC(=O)c1ccc(Cl)cc1)[C@H]1[C@@H]2C[C@@H](n3cc(C4CC4)nn3)C[C@@H]21 (stereo partly drawn) [Compound 169, methyl 2-(4-chlorobenzamido)-2-((1R,3s,5S,6r)-3-(4-cyclopropyl-1H-1,2,3-triazol-1-yl)bicyclo[3.1.0]hexan-6-yl)acetate] | 0.2 to 2 µM |
| CC[C@@H](NC(=O)c1ccnc(C)c1)[C@H]1[C@@H]2C[C@@H](n3cnc4cc(F)c(F)cc43)C[C@@H]21 [Compound 308, N-((R)-1-((1R,3S,5S,6r)-3-(5,6-difluoro-1H-benzo[d]imidazol-1-yl)bicyclo[3.1.0]hexan-6-yl)propyl)-2-methylisonicotinamide] | 0.2 to 2 µM |
| C[C@@H](NC(=O)c1ccc(C#N)cc1)[C@H]1[C@@H]2C[C@@H](O)C[C@@H]21 [Compound 297, 4-cyano-N-((R)-1-((1R,3S,5S,6r)-3-hydroxybicyclo[3.1.0]hexan-6-yl)ethyl)benzamide] | > 5 µM |
| CCC(NC(=O)c1ccc(Cl)cc1)[C@H]1[C@@H]2C[C@@H](N3C(=O)C(=O)c4ccccc43)C[C@@H]21 (stereo partly drawn) [Compound 114, 4-chloro-N-(1-((1R,3s,5S,6r)-3-(2,3-dioxoindolin-1-yl)bicyclo[3.1.0]hexan-6-yl)propyl)benzamide] | 0.2 to 2 µM |
| N#Cc1cccc(C(=O)NC[C@@H]2[C@H]3C[C@H](n4cnc5cc(F)c(F)cc54)C[C@@H]23)c1 [Compound 321, 3-cyano-N-(((1R,3s,5S,6r)-3-(5,6-difluoro-1H-benzo[d]imidazol-1-yl)bicyclo[3.1.0]hexan-6-yl)methyl)benzamide] | 0.2 to 2 µM |
| CC[C@@H](NC(=O)c1ccc(Cl)cc1)[C@H]1[C@@H]2C[C@@H](n3c(C(F)(F)F)nc4ccc(F)cc43)C[C@@H]21 [Compound 276, 4-chloro-N-((R)-1-((1R,3S,5S,6r)-3-(6-fluoro-2-(trifluoromethyl)-1H-benzo[d]imidazol-1-yl)bicyclo[3.1.0]hexan-6-yl)propyl)benzamide] | 0.2 to 2 µM |
| CCC(NC(=O)c1ccc(Cl)cc1)[C@H]1[C@@H]2C[C@@H](n3nncc3CO)C[C@@H]21 (stereo partly drawn) [Compound 155, 4-chloro-N-(1-((1R,3s,5S,6r)-3-(5-(hydroxymethyl)-1H-1,2,3-triazol-1-yl)bicyclo[3.1.0]hexan-6-yl)propyl)benzamide] | 0.2 to 2 µM |
| CCC(NC(=O)c1ccc(Cl)cc1)[C@H]1[C@@H]2C[C@@H](n3cnnc3C3CC3)C[C@@H]21 (stereo partly drawn) [Compound 172, 4-chloro-N-(1-((1R,3s, 5S, 6r)-3-(3-cyclopropyl-4H-1,2,4-triazol-4-yl)bicyclo[3.1.0]hexan-6-yl)propyl)benzamide] | 0.2 to 2 µM |

The remaining lines, values ahead:

| IC50 | Structure (SMILES) |
| --- | --- |
| < 0.2 µM | O=C(NC(CCO)[C@H]1[C@@H]2C[C@@H](n3ncc(=O)c4ccccc43)C[C@@H]21)c1ccc(Cl)cc1 (stereo partly drawn) [Compound 140, 4-chloro-N-(3-hydroxy-1-((1R,3s, 5S, 6r)-3-(4-oxocinnolin-1(4H)-yl)bicyclo[3.1.0]hexan-6-yl)propyl)benzamide] |
| < 0.2 µM | CCC(NC(=O)c1ccc(Cl)cc1)[C@H]1[C@@H]2C[C@@H](Oc3ncnc4ccccc34)C[C@@H]21 (stereo partly drawn) [Compound 59, 4-chloro-N-(1-((1R,3s,5S,6r)-3-(quinazolin-4-yloxy)bicyclo[3.1.0]hexan-6-yl)propyl)benzamide] |
| < 0.2 µM | CCC(NC(=O)c1ccc(Cl)cc1)[C@H]1[C@@H]2C[C@@H](NC(=O)c3ccncn3)C[C@@H]21 (stereo partly drawn) [Compound 149, N-((1R,3s,5S,6r)-6-(1-(4-chlorobenzamido)propyl)bicyclo[3.1.0]hexan-3-yl)pyrimidine-4-carboxamide] |
| < 0.2 µM | CC[C@@H](NC(=O)c1ccc(Cl)cc1)[C@H]1[C@@H]2C[C@@H](n3cc(C4CC4)cn3)C[C@@H]21 [Compound 348, 4-chloro-N-((R)-1-((1R,3S,5S,6r)-3-(4-cyclopropyl-1H-pyrazol-1-yl)bicyclo[3.1.0]hexan-6-yl)propyl)benzamide] |
| < 0.2 µM | CC[C@@H](NC(=O)c1ccc(Cl)cc1)[C@H]1[C@@H]2C[C@@H](n3cccn3)C[C@@H]21 [Compound 324, N-((R)-1-((1R,3S,5S,6r)-3-(1H-pyrazol-1-yl)bicyclo[3.1.0]hexan-6-yl)propyl)-4-chlorobenzamide] |
| < 0.2 µM | CC(NC(=O)c1ccc(Cl)cc1)[C@H]1[C@@H]2C[C@@H](n3cnc4ccc(F)cc4c3=O)C[C@@H]21 (stereo partly drawn) [Compound 63, 4-chloro-N-(1-((1R,3s,5S,6r)-3-(6-fluoro-4-oxoquinazolin-3(4H)-yl)bicyclo[3.1.0]hexan-6-yl)ethyl)benzamide] |
| < 0.2 µM | CC[C@@H](NC(=O)c1ccc(Cl)cc1)[C@H]1[C@@H]2C[C@@H](NC(=O)c3cccnc3)C[C@@H]21 [Compound 335, N-((1R,3S,5S,6r)-6-((R)-1-(4-chlorobenzamido)propyl)bicyclo[3.1.0]hexan-3-yl)nicotinamide] |
| < 0.2 µM | CC[C@@H](NC(=O)c1ccc(Cl)cc1)[C@H]1[C@@H]2C[C@@H](Nc3cc(Cl)ccc3[N+](=O)[O-])C[C@@H]21 [Compound 284, 4-chloro-N-((R)-1-((1R,3S,5S,6r)-3-((5-chloro-2-nitrophenyl)amino)bicyclo[3.1.0]hexan-6-yl)propyl)benzamide] |
| < 0.2 µM | CCC(NC(=O)c1ccc(Cl)cc1)[C@H]1[C@@H]2C[C@@H](Oc3nc(C)ncc3F)C[C@@H]21 (stereo partly drawn) [Compound 52, 4-chloro-N-(1-((1R,3s,5S,6r)-3-((5-fluoro-2-methylpyrimidin-4-yl)oxy)bicyclo[3.1.0]hexan-6-yl)propyl)benzamide] |
| < 0.2 µM | CCOC(=O)C(C(=O)OCC)[C@@H]1C[C@@H]2[C@H](C1)[C@H]2[C@@H](CC)NC(=O)c1ccc(Cl)cc1 [Compound 290, diethyl 2-((1R,3S,5S,6r)-6-((R)-1-(4-chlorobenzamido)propyl)bicyclo[3.1.0]hexan-3-yl)malonate] |
| < 0.2 µM | CC[C@@H](NC(=O)c1ccc(Cl)cc1)[C@H]1[C@@H]2C[C@@H](Nc3ncnc4ccc(F)cc34)C[C@@H]21 [Compound 336, 4-chloro-N-((R)-1-((1R,3S,5S,6r)-3-((6-fluoroquinazolin-4-yl)amino)bicyclo[3.1.0]hexan-6-yl)propyl)benzamide] |

— US11173145B2, “Compounds useful as inhibitors of indoleamine 2,3-dioxygenase and/or tryptophan dioxygenase” (Board of Regents, The University of Texas System, priority 2017, dated 2021)
